In patent US20260151327A1, “COSMETIC COMPOSITION FOR SKIN PROTECTION CONTAINING SCUTELLARIA BAICALENSIS EXTRACT AS ACTIVE INGREDIENT” (EVERBIO CO., LTD., priority 2022, published 2026):

Experiments:
Format in all cases: cell-based
[1] = system: hormone sensitive lipase (HSL); test: Lipolysis promoting effect in ASCs, FITC-anti-HSL staining, flow cytometry and HSL synthesis level; details: benzo[a]pyrene alone (BP50)
Experimental: (§1) AMP-activated protein kinase (AMPK) and hormone sensitive lipase (HSL), most common lipolytic enzymes, were applied to adipose-derived stem cells (ASCs), and the lipids obtained by degradation through AMPK were stained with PE-anti-AMPK (R&D system, USA), and the lipids obtained by degradation through HSL were stained with FITC-anti-HSL (R&D system, USA) for 24 hours. The lipids were washed with PBS, and then analyzed using a flow cytometer (FACSCalibur) and FlowJo v10.6.1 (BD Bioscience, USA), and the results are shown in FIG. 3A.
(§2) The synthesis levels of AMPK and HSL were analyzed and plotted in FIG. 3B.

[2] = system: adipose-derived stem cells (ASCs); test: Annexin-V-PI staining and flow cytometry: protection of ASCs against benzo[a]pyrene toxicity; details: human, 50 μM/mL
Experimental: The adipose-derived stem cell (ASC) protective effect of the Scutellaria baicalensis extract against the cell toxicity of benzo[a]pyrene was analyzed as below.
The adipose-derived stem cells cultured by the method in Example 1-1 were divided into i) a group treated with 50 μM/mL benzo[a]pyrene (BP50), ii) a group treated with 50 μM/mL benzo[a]pyrene and 200 μL/mL Scutellaria baicalensis extract (SBE200+BP50), and iii) a group treated with 50 μM/mL benzo[a]pyrene and 400 μL/mL Scutellaria baicalensis extract (SBE400+BP50). To observe cell apoptosis, the cells were stained using Annexin-V-PI dye kit (Invitrogen, USA). Since Annexin-V binds to phosphatidylserine (PS), which was exposed on the outer cell membrane during early apoptosis, early apoptosis can be identified using Annexin-V. Meanwhile, propidium iodide (PI), which binds to the nucleus, stains the nucleus through holes formed in the cell membrane in a state of late apoptosis or necrosis, thereby allowing the identification of late apoptotic or dead cells. […] For result analysis, the cellular viability was measured using a flow cytometer (BD FACSCalibur) and FlowJo 10.6.1 (BD Bioscience), and the results are shown in FIG. 2.

[3] = system: adipose-derived stem cells (ASCs); test: Cytotoxicity (CC50) in adipose-derived stem cells, 3 days exposure; details: benzo[a]pyrene, ASCs exposed for 3 days; read-out: CC50 (50% cytotoxicity concentration)
Experimental: (§3) PCS-500-011™ cells (Thermo-Fisher Scientific, USA) were purchased as adipose-derived stem cells (ASCs) used in the experiment, from American Type Culture Collection (ATCC), and subcultured for 3 passages in the MesenPRO RS™ medium and MesenPRO RS™ growth supplement medium (Thermo-Fisher scientific, USA) until the live cells reached 80% to 90% confluency.
(§4) Specifically, the cell stock vial was thawed in a 37° C. water bath and suspended in a medium with an equal volume of the cell stock vial, and then the suspension was transferred to a tube and centrifuged (2,000 rpm, 2 min, 4° C.), followed by removal of the supernatant. The phosphate buffered saline (PBS) was added to the cell pellets remaining after the removal of the supernatant, and then the above procedures were repeated three times. Thereafter, the resultant product was placed in a medium where the cell pellets were to be grown, followed by gentle pipetting up and down, thereby preparing a cell suspension. The cell suspension was dispensed into a flask or dish containing an appropriate amount of medium. The cells were subcultured when the cells reached 70% to 80% confluency on the bottom.
(§5) PBS, media, and trypsin-EDTA were warmed at 37° C. for 30 minutes before use. The supernatant medium was removed by suction, and PBS was dispensed. […]

[4] = as above; details: human, adipose-derived stem cells (ASCs, ATCC PCS-500-011), benzo[a]pyrene, ASCs exposed for 3 days; read-out: CC50 (50% cytotoxicity concentration)
Experimental: as §3, §4, §5

[5] = system: CCAAT enhancer binding protein alpha (CEBP-α); test: mRNA expression level of CEBP-α in ASCs (RT-PCR); details: 50 μM/mL benzo[a]pyrene (BP50) vs control (Con)
Experimental: The influence of benzo[a]pyrene and the Scutellaria baicalensis extract on the mRNA expression level of CCAAT enhancer binding protein alpha (CEBP-α), one of the lipolysis promoting genes, was investigated by the method as below.
The adipose-derived stem cells were divided into i) a control group with no treatment (Con), ii) a group treated with 50 μM/mL benzo[a]pyrene (BP50), iii) a group treated with 50 μM/mL benzo[a]pyrene and 200 μL/mL Scutellaria baicalensis extract (SBE200+BP50), and iv) a group treated with 50 μM/mL benzo[a]pyrene and 400 μL/mL Scutellaria baicalensis extract (SBE400+BP50), and the total RNA of each cell group was extracted using […] (GeneAll, Seoul, Korea). RNA was used to synthesize cDNA under the conditions of 1 minute at 95° C. and 35 seconds at 72° C. by using Maxime RT PreMix (iNtRON, Seungnam, Korea). The synthesized cDNA was amplified using the primers shown in Table 1 under the conditions of 15 seconds at 95° C., 30 seconds at 59° C., and 1 minute at 72° C. The amount of cDNA amplification was analyzed using iBright (FL1000, Thermo Fisher Scientific, Waltham, MA, USA) and iBright Analysis software 3.1.3 (Thermo Fisher Scientific, Waltham, MA, MA, USA), and the results are shown in FIG. 5.

[6] = system: AMP-activated protein kinase (AMPK); test: Lipolysis promoting effect in ASCs, PE-anti-AMPK staining, flow cytometry and AMPK synthesis level; details: benzo[a]pyrene alone (BP50)
Experimental: as §1, §2

Question: Which “proportion of cells undergoing lipolysis by HSL” value [1] does the source give for `c1ccc2c(c1)cc1ccc3cccc4ccc2c1c34` [benzo[a]pyrene, Benzo[a]pyrene] here?
Answer: Its value is 14.92%.

Question: What about the cellular viability [2] of the same molecule?
Answer: Its cellular viability is 48.1%.

Question: What about the “early apoptotic cell proportion” value [2] of the same molecule?
Answer: Its value is 29.6%.

Question: What about the “late apoptotic cell proportion” value [2] of the same molecule?
Answer: The value was 51.8%.

Question: What about the CC50 [3] of the same molecule?
Answer: The CC50 was 50 µM.

Question: And the CC50 at 3 days [4]?
Answer: The CC50 at 3 days was 25 µM.

Question: What about the “mRNA expression level of CEBP-α, fold higher than control group” value [5] of the same molecule?
Answer: Its value is 4.73 fold.

Question: And the “proportion of cells undergoing lipolysis by AMPK” value [6]?
Answer: The value was 18.72%.
